From patent US4777143A, “Method of detecting carboxylic acids in a specimen” (priority 1986, dated 1988)
Like-named read-outs stand apart in the source and are kept apart here.

What was measured:
[1] = Water miscibility of solvents; assay type: physicochemical; set-up: key: -: Where phase separation was visible; +: otherwise; conditions: 0.5 ml water + 0.5 ml solvent
Description: Various solvents were tested for their utility with regard to (1) water miscibility, (2) guaiac solubility and (3) color development. Water miscibility was evaluated by admixing 0.5 ml of water with 0.5 ml each solvent, and noting any phase separation. Where phase separation was visible, a "-" appears in Table 2; otherwise, a "+" appears.

[2] = Guaiac solubility in solvents / reagent solubility in water
Description: Color developing reagent was prepared as follows. […] Four ml of a given solvent as indicated in Table 2 were added and the guaiac was allowed to dissolve to the extent possible.
Subsequently, 48 μl of 80% cumene hydroperoxide was added to each tube (except to that containing the water-only sample) to make a complete color developing reagent (solvent, chromogen, oxidant) for testing.

| Molecule | WATER MISCIBILITY [1] | GUAIAC SOLUBILITY ([2]; noted visually) | GUAIAC SOLUBILITY [2] | solubility of cumene hydroperoxide in water ([2]; water) |
| --- | --- | --- | --- | --- |
| CCOC(C)=O [Ethyl Acetate] | - | ++ |  |  |
| CCCCCCCCOC(C)=O [Octyl Acetate] | - |  | ++ |  |
| OCc1ccccc1 [Benzyl Alcohol] | - |  | +++ |  |
| CCCCCCCO [n-Heptanol] | - | +++ |  |  |
| CC(C)c1ccc(CO)cc1 [4-Isopropyl-Benzyl Alcohol] | - | +++ |  |  |
| OCCO [Ethylene Glycol] | + | +++ |  |  |
| CC(C)O [Isopropanol] | + | +++ |  |  |
| CC(Cl)(Cl)Cl [1,1,1-trichloroethane] | - | ++ |  |  |
| CCCCCCO [n-Hexanol] | - |  |  |  |
| CCO [Ethanol] | + |  | +++ |  |
| Cc1ccccc1 [Toluene] | - |  |  |  |
| CCCCCO [n-Pentanol] | - |  | +++ |  |
| CC(C)(OO)c1ccccc1 [cumene hydroperoxide, reference compound] |  |  |  | essentially insoluble in water |
| CCCCCCCCO [n-Octanol] | - |  | +++ |  |
| Hexanes | - |  | - |  |
| COC(=O)CC(C)=O [Methyl-Acetoacetate] | + | +++ |  |  |
| CCCCCCCC [n-Octane] | - | - |  |  |
| CC(C)=O [Acetone] | + | +++ |  |  |
| CC(=O)CC(C)(C)O [4-hydroxy, 4 methyl-pentanone] |  |  | +++ |  |
| ClCCl [Dichloromethane] | - | ++ |  |  |
| CC(C)c1ccccc1 [Cumene] | - | + |  |  |
| CCC(C)=O [Methyl Ethyl Ketone] | + |  |  |  |
